From ChEMBL document CHEMBL3272261, “Aminobenzioc acid diuretics. 8.(2) 3, 4-Disubstituted 5-methylsulfonylbenzioc acids and related compounds” (1976)
Activity calls are given as the source filed them. No cut-off for these calls is given here.

What was measured:
Canis familiaris [1] = test: Diuretic activity in dog assessed as urine volume measured in water at 0.25 mg/kg, iv after 3 hrs; assay type: functional
Canis familiaris [2] = test: Diuretic activity in dog assessed as urine volume measured in water at 1 mg/kg, iv after 3 hrs; assay type: functional, Canis lupus familiaris
Canis familiaris [3] = test: Saluretic activity in dog assessed as urinary excretion of sodium level at 1 mg/kg, iv after 3 hrs; assay type: functional, Canis lupus familiaris, Urine
Canis familiaris [4] = test: Saluretic activity in dog assessed as urinary excretion of potassium level at 1 mg/kg, iv after 3 hrs; assay type: functional, Canis lupus familiaris, Urine
Canis familiaris [5] = test: Saluretic activity in dog assessed as urinary excretion of chloride level at 1 mg/kg, iv after 3 hrs; assay type: functional, Canis lupus familiaris, Urine
Canis familiaris [6] = test: Diuretic activity in dog assessed as urine volume measured in water at 10 mg/kg, iv after 3 hrs; assay type: functional, organism-based; design: dose 10 mg/kg; conditions: Canis lupus familiaris
Canis familiaris [7] = test: Saluretic activity in dog assessed as urinary excretion of sodium level at 0.25 mg/kg, iv after 3 hrs; assay type: functional, Canis lupus familiaris, Urine
Canis familiaris [8] = test: Saluretic activity in dog assessed as urinary excretion of potassium level at 0.25 mg/kg, iv after 3 hrs; assay type: functional, Canis lupus familiaris, Urine
Canis familiaris [9] = test: Saluretic activity in dog assessed as urinary excretion of chloride level at 0.25 mg/kg, iv after 3 hrs; assay type: functional, Canis lupus familiaris, Urine
Canis familiaris [10] = test: Diuretic activity in dog assessed as urine volume measured in water at 0.1 mg/kg, iv after 3 hrs; assay type: functional, Canis lupus familiaris
Canis familiaris [11] = test: Saluretic activity in dog assessed as urinary excretion of sodium level at 0.1 mg/kg, iv after 3 hrs; assay type: functional, Canis lupus familiaris, Urine
Canis familiaris [12] = test: Saluretic activity in dog assessed as urinary excretion of potassium level at 0.1 mg/kg, iv after 3 hrs; assay type: functional, Canis lupus familiaris, Urine
Canis familiaris [13] = test: Saluretic activity in dog assessed as urinary excretion of chloride level at 0.1 mg/kg, iv after 3 hrs; assay type: functional, Canis lupus familiaris, Urine
Canis familiaris [14] = test: Diuretic activity in dog assessed as urine volume measured in water at 0.1 mg/kg, po after 3 hrs; assay type: functional, Canis lupus familiaris
Canis familiaris [15] = test: Saluretic activity in dog assessed as urinary excretion of sodium level at 0.1 mg/kg, po after 3 hrs; assay type: functional, Canis lupus familiaris, Urine
Canis familiaris [16] = test: Saluretic activity in dog assessed as urinary excretion of potassium level at 0.1 mg/kg, po after 3 hrs; assay type: functional, Canis lupus familiaris, Urine
Canis familiaris [17] = test: Saluretic activity in dog assessed as urinary excretion of chloride level at 0.1 mg/kg, po after 3 hrs; assay type: functional, Canis lupus familiaris, Urine
Canis familiaris [18] = test: Diuretic activity in dog assessed as urine volume measured in water at 0.01 mg/kg, iv after 3 hrs; assay type: functional, Canis lupus familiaris
Canis familiaris [19] = test: Saluretic activity in dog assessed as urinary excretion of sodium level at 0.01 mg/kg, iv after 3 hrs; assay type: functional, Canis lupus familiaris, Urine
Canis familiaris [20] = test: Saluretic activity in dog assessed as urinary excretion of potassium level at 0.01 mg/kg, iv after 3 hrs; assay type: functional, Canis lupus familiaris, Urine
Canis familiaris [21] = test: Saluretic activity in dog assessed as urinary excretion of chloride level at 0.01 mg/kg, iv after 3 hrs; assay type: functional, Canis lupus familiaris, Urine
Canis familiaris [22] = test: Diuretic activity in dog assessed as urine volume measured in water at 0.25 mg/kg, po after 3 hrs; assay type: functional, Canis lupus familiaris
Canis familiaris [23] = test: Saluretic activity in dog assessed as urinary excretion of sodium level at 0.25 mg/kg, po after 3 hrs; assay type: functional, Canis lupus familiaris, Urine
Canis familiaris [24] = test: Saluretic activity in dog assessed as urinary excretion of potassium level at 0.25 mg/kg, po after 3 hrs; assay type: functional, Canis lupus familiaris, Urine
Canis familiaris [25] = test: Saluretic activity in dog assessed as urinary excretion of chloride level at 0.25 mg/kg, po after 3 hrs; assay type: functional, Canis lupus familiaris, Urine
Canis familiaris [26] = test: Diuretic activity in dog assessed as urine volume measured in water at 1 mg/kg, po after 3 hrs; assay type: functional, Canis lupus familiaris
Canis familiaris [27] = test: Saluretic activity in dog assessed as urinary excretion of sodium level at 1 mg/kg, po after 3 hrs; assay type: functional, Canis lupus familiaris, Urine
Canis familiaris [28] = test: Saluretic activity in dog assessed as urinary excretion of potassium level at 1 mg/kg, po after 3 hrs; assay type: functional, Canis lupus familiaris, Urine
Canis familiaris [29] = test: Saluretic activity in dog assessed as urinary excretion of chloride level at 1 mg/kg, po after 3 hrs; assay type: functional, Canis lupus familiaris, Urine

CS(=O)(=O)c1cc(C(=O)O)cc(NCc2ccccc2)c1Nc1ccccc1
Activity (Canis familiaris [1]; Canis lupus familiaris): inactive

CSc1cc(C(=O)O)cc(NCc2ccccc2)c1Oc1ccccc1
Activity (Canis familiaris [2]): 7 mL/kg
Activity (Canis familiaris [3]): 0.6 milliequivalent/kg
Activity (Canis familiaris [4]): 0.21 milliequivalent/kg
Activity (Canis familiaris [5]): 0.9 milliequivalent/kg

CS(=O)(=O)c1cc(C(=O)O)c(NCc2ccccc2)cc1Nc1ccccc1
Activity (Canis familiaris [6]): inactive

CCCCNc1cc(C(=O)O)cc(S(N)(=O)=O)c1Oc1ccccc1 [BUMETANIDE]
Activity (Canis familiaris [1]): 39 mL/kg
Activity (Canis familiaris [7]): 4 milliequivalent/kg
Activity (Canis familiaris [8]): 0.84 milliequivalent/kg
Activity (Canis familiaris [9]): 5.7 milliequivalent/kg
Activity (Canis familiaris [10]): 26 mL/kg
Activity (Canis familiaris [11]): 2.4 milliequivalent/kg
Activity (Canis familiaris [12]): 0.44 milliequivalent/kg
Activity (Canis familiaris [13]): 3.5 milliequivalent/kg
Activity (Canis familiaris [14]): 31 mL/kg
Activity (Canis familiaris [15]): 3.3 milliequivalent/kg
Activity (Canis familiaris [16]): 0.49 milliequivalent/kg
Activity (Canis familiaris [17]): 4.5 milliequivalent/kg
Activity (Canis familiaris [18]): 10 mL/kg
Activity (Canis familiaris [19]): 0.92 milliequivalent/kg
Activity (Canis familiaris [20]): 0.27 milliequivalent/kg
Activity (Canis familiaris [21]): 1.4 milliequivalent/kg

CCCCSc1cc(C(=O)O)cc(S(C)(=O)=O)c1Oc1ccccc1
Activity (Canis familiaris [2]): 21 mL/kg
Activity (Canis familiaris [3]): 3 milliequivalent/kg
Activity (Canis familiaris [4]): 0.64 milliequivalent/kg
Activity (Canis familiaris [5]): 3.2 milliequivalent/kg
Activity (Canis familiaris [10]; Canis lupus familiaris): inactive

CCCCNc1cc(C(=O)O)cc(S(C)(=O)=O)c1C(=O)c1ccccc1
Activity (Canis familiaris [22]): 9 mL/kg
Activity (Canis familiaris [23]): 0.9 milliequivalent/kg
Activity (Canis familiaris [24]): 0.19 milliequivalent/kg
Activity (Canis familiaris [25]): 1.2 milliequivalent/kg

O=C(O)c1cc(NCc2ccccc2)c2c(c1)S(=O)(=O)C=C2c1ccccc1
Activity (Canis familiaris [2]; Canis lupus familiaris): inactive

CS(=O)(=O)c1cc(C(=O)O)cc(NCc2ccccc2)c1Sc1ccccc1
Activity (Canis familiaris [1]): 6 mL/kg
Activity (Canis familiaris [7]): 0.9 milliequivalent/kg
Activity (Canis familiaris [8]): 0.18 milliequivalent/kg
Activity (Canis familiaris [9]): 1 milliequivalent/kg
Activity (Canis familiaris [2]): 17 mL/kg
Activity (Canis familiaris [3]): 2 milliequivalent/kg
Activity (Canis familiaris [4]): 0.28 milliequivalent/kg
Activity (Canis familiaris [5]): 2.4 milliequivalent/kg

CCCCNc1cc(C(=O)O)cc2c1C(O)(c1ccccc1)CS2(=O)=O (configuration not stated)
Activity (Canis familiaris [2]; Canis lupus familiaris): inactive

CS(=O)(=O)c1cc(C(=O)O)cc(NCc2ccccc2)c1C(=O)c1ccccc1
Activity (Canis familiaris [26]): 33 mL/kg
Activity (Canis familiaris [27]): 3.9 milliequivalent/kg
Activity (Canis familiaris [28]): 0.64 milliequivalent/kg
Activity (Canis familiaris [29]): 4.7 milliequivalent/kg
Activity (Canis familiaris [14]): 12 mL/kg
Activity (Canis familiaris [15]): 1.2 milliequivalent/kg
Activity (Canis familiaris [16]): 0.28 milliequivalent/kg
Activity (Canis familiaris [17]): 1.7 milliequivalent/kg

CS(=O)(=O)c1cc(C(=O)O)cc(OCc2ccccc2)c1C(=O)c1ccccc1
Activity (Canis familiaris [14]): 11 mL/kg
Activity (Canis familiaris [15]): 1.2 milliequivalent/kg
Activity (Canis familiaris [16]): 0.25 milliequivalent/kg
Activity (Canis familiaris [17]): 1.7 milliequivalent/kg

CCCCNc1cc(C(=O)O)cc(S(C)(=O)=O)c1Oc1ccccc1
Activity (Canis familiaris [2]): 15 mL/kg
Activity (Canis familiaris [3]): 2.1 milliequivalent/kg
Activity (Canis familiaris [4]): 0.22 milliequivalent/kg
Activity (Canis familiaris [5]): 2.7 milliequivalent/kg
Activity (Canis familiaris [10]): 3 mL/kg
Activity (Canis familiaris [11]): 0.6 milliequivalent/kg
Activity (Canis familiaris [12]): 0.19 milliequivalent/kg
Activity (Canis familiaris [13]): 0.4 milliequivalent/kg

CS(=O)(=O)c1cc(C(=O)O)c(NCc2ccco2)cc1Oc1ccccc1
Activity (Canis familiaris [2]): 14 mL/kg
Activity (Canis familiaris [3]): 1.7 milliequivalent/kg
Activity (Canis familiaris [4]): 0.39 milliequivalent/kg
Activity (Canis familiaris [5]): 2 milliequivalent/kg

O=C(O)c1cc(NCc2ccccc2)c2c(c1)S(=O)(=O)CC2(O)c1ccccc1 (configuration not stated)
Activity (Canis familiaris [2]; Canis lupus familiaris): inactive

CS(=O)(=O)c1cc(C(=O)O)cc(SCc2ccccc2)c1Sc1ccccc1
Activity (Canis familiaris [26]; Canis lupus familiaris): inactive

NS(=O)(=O)c1cc(C(=O)O)c(NCc2ccco2)cc1Oc1ccccc1
Activity (Canis familiaris [10]): 25 mL/kg
Activity (Canis familiaris [11]): 2.9 milliequivalent/kg
Activity (Canis familiaris [12]): 0.45 milliequivalent/kg
Activity (Canis familiaris [13]): 3.8 milliequivalent/kg
Activity (Canis familiaris [18]): 8 mL/kg
Activity (Canis familiaris [19]): 0.6 milliequivalent/kg
Activity (Canis familiaris [20]): 0.27 milliequivalent/kg
Activity (Canis familiaris [21]): 0.8 milliequivalent/kg

CS(=O)(=O)c1cc(C(=O)O)c(NCc2ccccc2)cc1Sc1ccccc1
Activity (Canis familiaris [6]): inactive

CS(=O)(=O)c1cc(C(=O)O)cc(NCc2ccccc2)c1Oc1ccccc1
Activity (Canis familiaris [1]): 21 mL/kg
Activity (Canis familiaris [7]): 3 milliequivalent/kg
Activity (Canis familiaris [8]): 0.99 milliequivalent/kg
Activity (Canis familiaris [9]): 3.5 milliequivalent/kg
Activity (Canis familiaris [2]): 31 mL/kg
Activity (Canis familiaris [3]): 4.8 milliequivalent/kg
Activity (Canis familiaris [4]): 0.98 milliequivalent/kg
Activity (Canis familiaris [5]): 5.1 milliequivalent/kg
Activity (Canis familiaris [10]): 9 mL/kg
Activity (Canis familiaris [11]): 1.1 milliequivalent/kg
Activity (Canis familiaris [12]): 0.2 milliequivalent/kg
Activity (Canis familiaris [13]): 1.4 milliequivalent/kg

C[S+]([O-])c1cc(C(=O)O)cc(NCc2ccccc2)c1Oc1ccccc1 (configuration not stated)
Activity (Canis familiaris [2]): 7 mL/kg
Activity (Canis familiaris [3]): 0.9 milliequivalent/kg
Activity (Canis familiaris [4]): 0.17 milliequivalent/kg
Activity (Canis familiaris [5]): 1.1 milliequivalent/kg

CS(=O)(=O)c1cc(C(=O)O)c(NCc2ccccc2)cc1Oc1ccccc1
Activity (Canis familiaris [6]): inactive

CCCCOc1cc(C(=O)O)cc(S(C)(=O)=O)c1C(=O)c1ccccc1
Activity (Canis familiaris [26]): 24 mL/kg
Activity (Canis familiaris [27]): 2.6 milliequivalent/kg
Activity (Canis familiaris [28]): 0.54 milliequivalent/kg
Activity (Canis familiaris [29]): 3.4 milliequivalent/kg
Activity (Canis familiaris [14]): 4 mL/kg
Activity (Canis familiaris [15]): 0.5 milliequivalent/kg
Activity (Canis familiaris [16]): 0.22 milliequivalent/kg
Activity (Canis familiaris [17]): 0.8 milliequivalent/kg

CCCCNc1cc(C(=O)O)cc2c1C(c1ccccc1)=CS2(=O)=O
Activity (Canis familiaris [2]; Canis lupus familiaris): inactive
